Reference: BindingDB's records for doi:10.1021/jm00023a011 (Agricultural University of Athens, 1995)

Tests used:
[1] = target: T1, Phospholipase A1 member A (Rattus norvegicus, UniProt P97535); assay: IC50 was measured as concentration causing 50% inhibition of lysosomal phospholipase A1 activity.
T1 sequence (P97535 whole entry): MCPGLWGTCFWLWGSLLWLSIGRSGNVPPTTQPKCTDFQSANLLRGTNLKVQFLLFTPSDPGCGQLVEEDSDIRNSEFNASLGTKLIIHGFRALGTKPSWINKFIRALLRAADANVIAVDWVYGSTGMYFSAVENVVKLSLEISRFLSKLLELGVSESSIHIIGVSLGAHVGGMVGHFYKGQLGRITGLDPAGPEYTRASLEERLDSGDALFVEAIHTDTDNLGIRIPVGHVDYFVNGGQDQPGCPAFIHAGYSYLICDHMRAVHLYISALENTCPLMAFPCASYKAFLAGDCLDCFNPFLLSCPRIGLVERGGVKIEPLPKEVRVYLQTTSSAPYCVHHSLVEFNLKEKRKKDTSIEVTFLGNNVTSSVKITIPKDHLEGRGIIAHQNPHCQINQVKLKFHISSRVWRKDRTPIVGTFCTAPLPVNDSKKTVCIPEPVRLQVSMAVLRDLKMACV

[2] = target: T1, Phospholipase A1 member A; assay: IC50 was measured as concentration causing 50% inhibition of lysosomal phospholipase A1 activity

| IC50 [1] [µM] | IC50 [2] [µM] | Compound |
| --- | --- | --- |
| 115 | – | CCN[C@@H]1C[C@H](N)[C@@H](O[C@H]2OC(CN)=CC[C@H]2N)[C@H](O)[C@H]1O[C@H]1OC[C@](C)(O)[C@H](NC)[C@H]1O [Netilmicin] |
| – | 132 | CCNC1CC(N)C(OC2OC(CNC(=O)C(N)CC(=O)O)=CCC2N)C(O)C1OC1OCC(C)(O)C(NC)C1O (centres undefined) |
| – | 118 | CCNC1CC(N)C(OC2OC(CNC(=O)CN)=CCC2N)C(O)C1OC1OCC(C)(O)C(NC)C1O (centres undefined) |
| 91.4 | – | CCNC1CC(N)C(OC2OC(CNC(=O)C(C)N)=CCC2N)C(O)C1OC1OCC(C)(O)C(NC)C1O (centres undefined) |
| – | 101 | CCN[C@@H]1C[C@H](N)[C@@H](O[C@H]2OC(CNC(=O)[C@H](C)NC(=O)[C@H](C)N)=CC[C@H]2N)[C@@H](O)[C@H]1O[C@H]1OC[C@](C)(O)[C@H](NC)[C@@H]1O |

More lines, now with the values behind:

| Compound | IC50 [1] [µM] | IC50 [2] [µM] |
| --- | --- | --- |
| NC[C@H]1O[C@H](O[C@H]2[C@H](O)[C@@H](O[C@H]3O[C@H](CO)[C@@H](O)[C@H](N)[C@H]3O)[C@H](N)C[C@@H]2N)[C@H](O)[C@@H](O)[C@@H]1O [CHEBI:17630] | 80.4 | – |
| CC(N)C(=O)NCC1OC(OC2C(N)CC(N)C(OC3OC(CO)C(O)C(N)C3O)C2O)C(O)C(O)C1O (centres undefined) | 75.5 | – |
| CN[C@@H]1[C@@H](O)[C@@H](O[C@@H]2[C@@H](O)[C@H](O[C@H]3O[C@H]([C@@H](C)NC)CC[C@H]3N)[C@@H](N)C[C@H]2N)OC[C@]1(C)O [GENTAMICIN] | 94.2 | – |
| C[C@H](N)C(=O)N[C@@H](C)C(=O)NC[C@H]1O[C@H](O[C@H]2[C@@H](O)[C@@H](O[C@H]3O[C@@H](CO)[C@@H](O)[C@H](N)[C@@H]3O)[C@H](N)C[C@@H]2N)[C@H](O)[C@H](O)[C@@H]1O | – | 49.4 |
